Results published in publication PMC12386980, “Functional Analysis of NPC2 in Alarm Pheromone Recognition by the Red Imported Fire Ant, Solenopsis invicta (Formicidae: Solenopsis)” (Insects, 2025).

Key:
SinvNPC2a [1] = biological target: T1, SinvNPC2a (Solenopsis invicta, UniProt Z9QIP2HJ34); test: fluorescence competitive binding assay, 1-NPN displacement
T1 construct: recombinant from pET28a in E. coli BL21(DE3) pLysS, soluble, Ni-IDA purified

SinvNPC2a [2] = biological target: T1, SinvNPC2a; test: as above; remark: listed apart in the source

T1 sequence (Z9QIP2HJ34 21-153 limits assumed): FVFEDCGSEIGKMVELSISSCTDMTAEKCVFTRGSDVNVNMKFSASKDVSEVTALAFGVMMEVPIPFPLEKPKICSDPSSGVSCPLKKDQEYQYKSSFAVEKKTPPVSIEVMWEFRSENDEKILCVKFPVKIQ

## CCc1nc(C)cnc1C [EDMP, 2-ethyl-3,6-dimethylpyrazine]
SinvNPC2a [1]
  Ki: 5.09 ± 1.51 µM
SinvNPC2a [2]
  IC50: 9.82 µM
